According to patent US20260000082A1, “STABILIZED LIQUID HERBICIDE FORMULATION OF HIGH-LOAD PYRASULFOTOLE” (ADAMA AGAN LTD., priority 2022, published 2026):

Assay: Solubility of Pyrasulfotole in solvents with and without organic amine at room temp (24° C.)
Format: physicochemical
Conditions: for increase of solubility: 24° C.
Method: Some of the results are tabulated as follows:
Solubility of Pyrasulfotole in Dimethyl sulfoxide (DMSO) and in a mixture of Pyrasulfotole with DMSO and amine at room temp (24° C.) was tested.
Solubility of Pyrasulfotole in Cyclohexanone and in a mixture of Pyrasulfotole with Cyclohexanone and amine at room temp (24° C.) was tested.
Solubility of Pyrasulfotole in Propylene carbonate and in a mixture of Pyrasulfotole with Propylene carbonate and amine at room temp (24° C.) was tested.

## Cc1nn(C)c(O)c1C(=O)c1ccc(C(F)(F)F)cc1S(C)(=O)=O [Pyrasulfotole]
Cyclohexanone/Genamin C-50 66/34 versus Cyclohexanone alone
  increase of solubility: about 400%
DMSO/GENAMIN C-50 66/34 versus DMSO alone
  increase of solubility: about 26%
Propylene carbonate/Genamin C-50 70/30 versus Propylene carbonate alone
  increase of solubility: about 620%
Solvent Cyclohexanone, rate 100, room temp (24° C.)
  Solubility (%): 8.24%
Solvent Cyclohexanone/Genamin C-50, rate 66/34, room temp (24° C.)
  Solubility (%): 32.99%
Solvent DMSO, rate 100, room temp (24° C.)
  Solubility (%): 26.98%
Solvent DMSO/GENAMIN C-50, rate 66/34, room temp (24° C.)
  Solubility (%): 39.24%
Solvent Propylene carbonate, rate 100, room temp (24° C.)
  Solubility (%): 4.59%
Solvent Propylene carbonate/Genamin C-50, rate 70/30, room temp (24° C.)
  Solubility (%): 28.57%
